The values below come from US7608615B2, “Pyrrolo[2,1-C][1,4]benzodiazepine hybrids and a process for the preparation thereof” (Council of Scientific & Industrial Research, priority 2006, dated 2009).

Assay type in all cases: cell-based, human
For one experiment, the system named is Colo205. Briefly: in vitro cytotoxicity, Colo205 colon cancer cells. To be noted: for percentage cell growth (Activity status in terms of IC50 values) Colo205 Colon: 48 h continuous drug exposure, percent of cell growth relative to untreated control cells; for suppress Colo205 cell growth: suppression of cell growth, 48 h exposure. On the procedure:
(§1) Cytotoxicity: The compounds 7-methoxy-8-[3-(6-chloro-2-oxo-4-phenyl-1,2-dihydro-1-quinazolinyl)propoxy]-(11aS)-1,2,3,11a-tetrahydro-5H-pyrrolo[2,1-c][1,4]benzodiazepine-5-one and 7-methoxy-8-[5-(6-chloro-2-oxo-4-phenyl-1,2-dihydro-1-quinazolinyl)pentyloxy]-(11aS)-1,2,3,11a-tetrahydro-5H-pyrrolo [2,1-c][1,4]benzodiazepine-5-one were evaluated for in vitro anticancer activity against nine human tumour cells derived from six cancer types (colon, prostate, oral, lung, cervix and breast cancer) as shown in (Table 1).
(§2) Compounds 5d and 5f have been evaluated for their in vitro cytotoxicity in selected human cancer cell lines of colon (Colo205), lung (Hop-62), cervix (SiHa), prostate (DU145, PC3), oral (DWD, HT1080), and breast (MCF7, Zr-75-1) origin. A protocol of 48 h continuous drug exposure and an […] protein assay has been used to estimate cell viability or growth. The results are expressed as percent of cell growth determined relative to that of untreated control cells (Table 1).

The subject of a further experiment is DU145. The experiment is described as follows: in vitro cytotoxicity, DU145 prostate cancer cells. To be noted: for percentage cell growth (Activity status in terms of IC50 values) DU145 Prostate: 48 h continuous drug exposure, percent of cell growth relative to untreated control cells; for suppress DU145 cell growth: suppression of cell growth, 48 h exposure. On the procedure: as §1, §2

Another experiment concerns DWD. The experiment is described as follows: in vitro cytotoxicity, DWD oral cancer cells. To be noted: for percentage cell growth (Activity status in terms of IC50 values) DWD Oral: 48 h continuous drug exposure, percent of cell growth relative to untreated control cells; for suppress DWD cell growth: suppression of cell growth, 48 h exposure. On the procedure:
as §1, §2

The test system of the next experiment is Hop62. Briefly: in vitro cytotoxicity, Hop62 lung cancer cells. The conditions noted are these: for percentage cell growth (Activity status in terms of IC50 values) Hop62 Lung: 48 h continuous drug exposure, percent of cell growth relative to untreated control cells; for suppress Hop62 cell growth: suppression of cell growth, 48 h exposure. On the procedure:
as §1, §2

A further experiment relates to HT1080. Briefly: in vitro cytotoxicity, HT1080 oral cancer cells. To be noted: for percentage cell growth (Activity status in terms of IC50 values) HT1080 Oral: 48 h continuous drug exposure, percent of cell growth relative to untreated control cells; for suppress HT1080 cell growth: suppression of cell growth, 48 h exposure. On the procedure:
as §1, §2

The subject of the next experiment is MCF7. The experiment is described as follows: in vitro cytotoxicity, MCF7 breast cancer cells. The conditions noted are these: for percentage cell growth (Activity status in terms of IC50 values) MCF7 Breast: 48 h continuous drug exposure, percent of cell growth relative to untreated control cells; for suppress MCF7 cell growth: suppression of cell growth, 48 h exposure. On the procedure: as §1, §2

The next experiment concerns PC3. The experiment is described as follows: in vitro cytotoxicity, PC3 prostate cancer cells. The conditions noted are these: for percentage cell growth (Activity status in terms of IC50 values) PC3 Prostate: 48 h continuous drug exposure, percent of cell growth relative to untreated control cells; for suppress PC3 cell growth: suppression of cell growth, 48 h exposure. On the procedure:
as §1, §2

Another experiment concerns SiHa. Briefly: in vitro cytotoxicity, SiHa cervix cancer cells. To be noted: for percentage cell growth (Activity status in terms of IC50 values) SiHa Cervix: 48 h continuous drug exposure, percent of cell growth relative to untreated control cells; for suppressing the SiHa cell growth: suppression of cell growth, 48 h exposure. On the procedure: as §1, §2
A further experiment relates to Zr-75-1. The experiment is described as follows: in vitro cytotoxicity, Zr-75-1 breast cancer cells. The conditions noted are these: for percentage cell growth (Activity status in terms of IC50 values) Zr-75-1 Breast: 48 h continuous drug exposure, percent of cell growth relative to untreated control cells; for suppressing Zr-25-1 cell growth: suppression of cell growth, 48 h exposure. On the procedure:
as §1, §2

With `COc1cccc2c1C(=O)c1c(O)c3c(c(O)c1C2=O)C[C@@](O)(C(=O)CO)C[C@@H]3O[C@H]1C[C@H](N)[C@H](O)[C@H](C)O1` [ADR, adriamycin, reference compound], the “percentage cell growth (Activity status in terms of IC50 values) Colo205 Colon” value with Colo205 is given as 5%. In addition, in the experiment on DU145, the “percentage cell growth (Activity status in terms of IC50 values) DU145 Prostate” value was found to be 6%. Moreover, in the experiment with DWD, the “percentage cell growth (Activity status in terms of IC50 values) DWD Oral” value was determined as 2%. The “percentage cell growth (Activity status in terms of IC50 values) Hop62 Lung” value with Hop62 was found to be 5%. Moreover, the “percentage cell growth (Activity status in terms of IC50 values) HT1080 Oral” value in the experiment on HT1080 worked out at 4%. Moreover, the “percentage cell growth (Activity status in terms of IC50 values) MCF7 Breast” value in the experiment with MCF7 came to 5%. Moreover, the “percentage cell growth (Activity status in terms of IC50 values) PC3 Prostate” value with PC3 is given as 5%. Also, in the experiment on SiHa, the “percentage cell growth (Activity status in terms of IC50 values) SiHa Cervix” value was 5%. The “percentage cell growth (Activity status in terms of IC50 values) Zr-75-1 Breast” value in the experiment on Zr-75-1 worked out at 5%.
As for `COc1cc2c(cc1OCCCn1c(=O)nc(-c3ccccc3)c3cc(Cl)ccc31)N=C[C@@H]1CCCN1C2=O` [Compound 5d, 7-Methoxy-8-[3-(6-chloro-2-oxo-4-phenyl-1,2-dihydro-1-quinazolinyl)propoxy]-(11aS)-1,2,3,11a-tetrahydro-5H-pyrrolo[2,1-c][1,4]benzodiazepine-5-one], in the experiment on Colo205, the “percentage cell growth (Activity status in terms of IC50 values) Colo205 Colon” value came to 8% and the “suppress Colo205 cell growth” value is 92%. Further, in the experiment with DU145, the “percentage cell growth (Activity status in terms of IC50 values) DU145 Prostate” value stood at 8% and the “suppress DU145 cell growth” value turned out to be 92%. Besides, in the experiment with DWD, the “percentage cell growth (Activity status in terms of IC50 values) DWD Oral” value was 5% and the “suppress DWD cell growth” value came to 95%. Further, in the experiment with Hop62, the “percentage cell growth (Activity status in terms of IC50 values) Hop62 Lung” value is 6% and the “suppress Hop62 cell growth” value is given as 94%. Moreover, in the experiment on HT1080, the “percentage cell growth (Activity status in terms of IC50 values) HT1080 Oral” value is listed as 9% and the “suppress HT1080 cell growth” value came to 91%. Besides, in the experiment on MCF7, the “percentage cell growth (Activity status in terms of IC50 values) MCF7 Breast” value is reported as 12% and the “suppress MCF7 cell growth” value worked out at 88%. Besides, in the experiment with PC3, the “percentage cell growth (Activity status in terms of IC50 values) PC3 Prostate” value came out at 11% and the “suppress PC3 cell growth” value was determined as 89%. In the experiment with SiHa, the “percentage cell growth (Activity status in terms of IC50 values) SiHa Cervix” value stood at 16% and the “suppressing the SiHa cell growth” value was found to be 84%. In the experiment on Zr-75-1, the “percentage cell growth (Activity status in terms of IC50 values) Zr-75-1 Breast” value amounted to 8% and the “suppressing Zr-25-1 cell growth” value is listed as 92%.
For `COc1cc2c(cc1OCCCCCn1c(=O)nc(-c3ccccc3)c3cc(Cl)ccc31)N=C[C@@H]1CCCN1C2=O` [Compound 5f, 7-Methoxy-8-[5-(6-chloro-2-oxo-4-phenyl-1,2-dihydro-1-quinazolinyl)pentyloxy]-(11aS)-1,2,3,11a-tetrahydro-5H-pyrrolo[2,1-c][1,4]benzodiazepine-5-one], in the experiment on Colo205, the “percentage cell growth (Activity status in terms of IC50 values) Colo205 Colon” value came out at 15% and the “suppress Colo205 cell growth” value was 85%. Further, in the experiment with DU145, the “percentage cell growth (Activity status in terms of IC50 values) DU145 Prostate” value was determined as 10% and the “suppress DU145 cell growth” value came to 90%. Also, in the experiment on DWD, the “percentage cell growth (Activity status in terms of IC50 values) DWD Oral” value is recorded as 5% and the “suppress DWD cell growth” value is 95%. Besides, in the experiment on Hop62, the “percentage cell growth (Activity status in terms of IC50 values) Hop62 Lung” value was found to be 5% and the “suppress Hop62 cell growth” value is recorded as 95%. Besides, in the experiment with HT1080, the “percentage cell growth (Activity status in terms of IC50 values) HT1080 Oral” value came out at 8% and the “suppress HT1080 cell growth” value is 92%. Moreover, in the experiment on MCF7, the “percentage cell growth (Activity status in terms of IC50 values) MCF7 Breast” value came to 8% and the “suppress MCF7 cell growth” value is 92%. In addition, in the experiment on PC3, the “percentage cell growth (Activity status in terms of IC50 values) PC3 Prostate” value stood at 7% and the “suppress PC3 cell growth” value is 93%. Besides, in the experiment with SiHa, the “percentage cell growth (Activity status in terms of IC50 values) SiHa Cervix” value came to 16% and the “suppressing the SiHa cell growth” value is listed as 84%. In the experiment on Zr-75-1, the “percentage cell growth (Activity status in terms of IC50 values) Zr-75-1 Breast” value turned out to be 8% and the “suppressing Zr-25-1 cell growth” value was 92%.
